The target in data set [1] is T1, saFabI (Staphylococcus aureus (strain MRSA252), UniProt Q6GI75). Put plainly: saFabI inhibition kinetics. Type of data set: biochemical.
In the next data set the test system is E. coli MG1655 ΔacrAB. In words: microbe, parasite or virus in culture. Conditions: for MIC: Escherichia coli. It is filed as cell-based, Escherichia coli.
Data set [2] has as its system B. pseudomallei Bp400. Put plainly: microbe, parasite or virus in culture. The note with it: Burkholderia pseudomallei. Type of data set: cell-based.
The target in data set [3] is T1, saFabI. In words: Jump dilution assay with saFabI. It is filed as biochemical.
In data set [4] the test system is F. tularensis LVS. Put plainly: microbe, parasite or virus in culture. It is filed as cell-based. Conditions: Francisella tularensis; for MIC: read-out: MIC (μm), F. tularensis LVS, Table 3; for inhibition at 5 µg/mL: read-out: Francisella tularensis LVS, % inhib.
Another data set relates to M. tuberculosis H37Rv. Put plainly: MIC microbroth dilution, M. tuberculosis H37Rv. It is filed as cell-based. Conditions: Mycobacterium tuberculosis.
Data set [5] concerns the target M. tuberculosis enoyl-ACP reductase InhA (Mycobacterium tuberculosis (strain ATCC 25618 / H37Rv), UniProt P9WGR1). In words: InhA inhibition kinetics. Type of data set: biochemical.
In a further data set the test system is P. mirabilis ATCC35659. Put plainly: MIC microbroth dilution, P. mirabilis ATCC35659. Type of data set: cell-based. Conditions: Proteus mirabilis.
Another data set relates to S. aureus RN4220. In words: MIC microbroth dilution, S. aureus RN4220. It is filed as cell-based, Staphylococcus aureus. The note with it: Staphylococcus aureus.
In a further data set the test system is E. coli MG1655. Put plainly: MIC microbroth dilution, E. coli MG1655 with intact AcrAB efflux pump. It is filed as cell-based, Escherichia coli. Conditions: for MIC: Escherichia coli.
Data set [6] has as its system B. pseudomallei Bp400. The note with it: B. pseudomallei Bp400, data according to Ref. 69; cited from earlier work.
For data set [7], the system named is F. tularensis LVS. The note with it: data according to Ref. 69; cited from earlier work.
The target of a further data set is ecFabI (Escherichia coli (strain K12), UniProt P0AEK4). In words: ecFabI inhibition kinetics. It is filed as biochemical.
Another data set has as its system Yersinia pestis. Put plainly: microbe, parasite or virus in culture. Type of data set: cell-based. The note with it: read-out: Yersinia pestis, % inhib.
For data set [8], the target named is Francisella tularensis FabI (Francisella tularensis subsp. tularensis (strain SCHU S4 / Schu 4), UniProt Q5NGQ3). In words: biochemical.
The subject of the next data set is Bt38. Put plainly: microbe, parasite or virus in culture. Type of data set: cell-based. Conditions: Burkholderia pseudomallei, read-out: Bt38, % inhib.
The next data set addresses YpFabV (Yersinia pestis, UniProt Q8Z9U1). Put plainly: biochemical.
The target of a further data set is bpFabI (Burkholderia pseudomallei, UniProt A0A0H3HP34). Put plainly: biochemical.
In the next data set the target is bpFabV (Burkholderia pseudomallei, UniProt Q63TE9). Type of data set: biochemical. The note with it: read-out: Burkholderia pseudomallei IC50 (μM), bpFabV.
In data set [9] the test system is PT166-resistant S. aureus RN4220 mutants. Put plainly: microbe, parasite or virus in culture. The note with it: Staphylococcus aureus. Type of data set: cell-based.
The subject of the next data set is MRSA strain BAA1762. Put plainly: Neutropenic mouse thigh infection model. Conditions: 100 mg/kg dose, MRSA BAA1762, neutropenic mouse. It is filed as in vivo, Swiss Webster mice.
Another data set is described as follows: in vivo. Conditions: female, ICR, mouse, ip, 100 mg/kg.
The mark [10] stands for this setting: M. tuberculosis H37Rv, Table 3, read-out: MIC (μm).
Where [11] appears, read: RN4220, S. aureus RN4220, Table 3, read-out: MIC (μm).
Setting [12] is: RN4220, S. aureus RN4220, read-out: MIC.
The mark [13] stands for this setting: E. coli MG1655, Table 3, read-out: MIC (μm).
The mark [14] stands for this setting: H37RV, 4-pyridones table, read-out: Mycobacterium tuberculosis MIC (μg/mL) H37Rv.

The values that follow come from patent US10071965B2, “Pyridone FabI inhibitors and uses thereof” (priority 2015, dated 2018).

Converted amounts (≈) assume the structure as drawn. “And” between values parts separate entries of the source, which are not always exact repeats. Equal entries are not always repeated. Where two headings read alike, the source gives them in different places. Marks after values point to notes of the source that are not given here. A value given as a limit tells only on which side of the number the result lay.

Consider `Cc1c(N)cccc1Cn1ccc(OCCc2cccs2)cc1=O` [CG400549, reference compound], for which the “affinity improvement for saFabI” value at saFabI [1] (relative to PT173) amounted to 1.5 fold. For the same compound, the MIC against E. coli MG1655 ΔacrAB (MG1655) is more than 375 µM; in the data set on E. coli MG1655 ΔacrAB (MG1655, read-out: MIC (μm)), more than 375 µM; in the data set on B. pseudomallei Bp400 [2] (BP400, read-out: MIC (μm)), 376 µM; in the data set on F. tularensis LVS [4] it was 5.9 µM (≈ 2.01 µg/mL); in the data set with M. tuberculosis H37Rv (setting [10]), more than 300 µM; with P. mirabilis ATCC35659 (P. mirabilis ATCC35659, read-out: MIC (μm)) it was more than 750 µM. The figures for the MIC with S. aureus RN4220 (setting [11]), with S. aureus RN4220 (setting [12]) and in the data set on E. coli MG1655 (setting [13]) were 5.9 µM, 5.9 µM and more than 375 µM, respectively. The “off kinetics in jump dilution curve” value on saFabI [3] (preincubation with NADPH and saFabI) was “rapid off kinetics”. Further, in data set [5], the Ki is 582 nM. In the data set with E. coli MG1655 (E. coli versus S. aureus, Table 3), the lower antibacterial activity was more than 64 fold.

Turning to `CCc1ccc(Oc2ccccc2)c(O)c1` [PT01, 5-ethyl-2-phenoxyphenol], the MIC with E. coli MG1655 ΔacrAB (MG1655) amounted to 0.6 µM (≈ 0.129 µg/mL); in the data set on E. coli MG1655 ΔacrAB (MG1655, read-out: MIC (μm)) it was 0.6 µM (≈ 0.129 µg/mL); in the data set on M. tuberculosis H37Rv (setting [10]), 72.9 µM; with S. aureus RN4220 (setting [11]) it was 2.3 µM; in the data set on S. aureus RN4220 (setting [12]), 2.3 µM; in the data set with E. coli MG1655 (setting [13]), 18.7 µM. In addition, the “MIC (μM)” value in the data set with B. pseudomallei Bp400 [6] was 326.7^c μM; in the data set on F. tularensis LVS [7], 0.1^c μM.

In the case of `Oc1cc(Cl)ccc1Oc1ccccc1` [PT52], the MIC against E. coli MG1655 ΔacrAB (MG1655) came out at 0.1 µM (≈ 0.0221 µg/mL). Moreover, on saFabI [3] (preincubation with NADP+ and saFabI, jump dilution, read-out: residence time tR), the residence time was determined as 30 min. Moreover, the Ki was 26.9 nM on ecFabI ([S]/KS = 0.19, binds E-NAD+ binary complex, single point progress curve analysis, read-out: Ki^app) and 0.1 nM on ecFabI (binds E-NAD+ binary complex, single point progress curve analysis, read-out: Ki).

With `CCCCCCc1cc(=O)c(Oc2ccc(N)cc2C)cn1C` [PT155], the inhibition at 40 µg/mL in the data set with Yersinia pestis came to 26%. Also, the IC50 in data set [8] is 53 nM; against YpFabV, more than 50000 nM; at bpFabI, 140 nM; in data set [5], 107 nM; at bpFabV, 3 ± 0.6 µM. The inhibition at 20 µg/mL with Bt38 worked out at 90%. For the same compound, the inhibition at 5 µg/mL with F. tularensis LVS [4] is 91%. Moreover, the MIC in the data set with M. tuberculosis H37Rv (setting [14]) was found to be 6.25 µg/mL.

Consider `CCCCCCc1cc(=O)c(Oc2ccc([N+](=O)[O-])cc2)cn1C` [PT156], for which the inhibition at 40 µg/mL was determined as 29% with Yersinia pestis and 43% with Bt38. The IC50 against YpFabV came out at 180 nM; on bpFabI it was 960 ± 100 nM; in [5], 407 nM; at bpFabV it was 0.56 ± 0.1 µM. Moreover, the inhibition at 5 µg/mL with F. tularensis LVS [4] amounted to 88%. Moreover, the MIC in the data set on M. tuberculosis H37Rv (setting [14]) turned out to be 50 µg/mL.

Turning to `CCCCCCc1cc(=O)c(Oc2ccc(N)cc2)cn1C` [PT157], the concentration for half-maximal inhibition (IC50) against YpFabV is 130 nM; in [5] it was 424 nM; at bpFabV, 1 µM and 0.87 µM. Moreover, the MIC in the data set with M. tuberculosis H37Rv (setting [14]) was 50 µg/mL.

Consider `CCCCCCc1cc(=O)c(Oc2ccccc2C)cn1C` [PT166], for which the Ki at saFabI [1] (Ki (nM), saFabI) came to 2.7 ± 0.6 nM; at saFabI [1] (Ki, saFabI), 2.7 nM; at saFabI [1] (Ki^app (nM), saFabI, [S]/KS = 2), 10.1 ± 2.1 nM; on saFabI [1] (Staphylococcus aureus Ki (nM), 4-pyridones table), 2.7 nM; in data set [5] it was 22 nM; at ecFabI (Ki^app (nM), [S]/KS = 0.19), 8.5 ± 0.2 nM. Further, the results for the IC50 in data set [8] and in data set [5] were 24 nM and 28.6 nM, respectively. Also, in the data set on E. coli MG1655 ΔacrAB (4-pyridones table), the “Escherichia coli MIC (μg/mL) MG1655 ΔacrAB” value was found to be 2 µg/mL. Moreover, the MIC against E. coli MG1655 ΔacrAB (MG1655) worked out at 6.7 µM (≈ 2.01 µg/mL); in the data set with E. coli MG1655 ΔacrAB (MG1655, read-out: MIC (μm)) it was 6.7 µM (≈ 2.01 µg/mL); in [9] (read-out: MIC μm, strain 166R.1, FabI A95V) it was 8.8 µM (≈ 2.63 µg/mL); in data set [9] (read-out: MIC μm, strain 166R.2, FabI A95V), 8.8 µM (≈ 2.63 µg/mL); in [9] (read-out: MIC μm, strain 166R.3, FabI A95V and F252L), 8.8 µM (≈ 2.63 µg/mL); in data set [9] (read-out: MIC μm, strain 166R.4, FabI A95V and E71D), 8.8 µM (≈ 2.63 µg/mL). Further, the MIC was 17.6 µM (≈ 5.27 µg/mL) in [9] (read-out: MIC μm, strain 166R.5, no change in fabI); 64 µg/mL in the data set with B. pseudomallei Bp400 [2] (BP400, read-out: Burkholderia pseudomallei MIC (μg/mL) Bp400); 214 µM with B. pseudomallei Bp400 [2] (BP400, read-out: MIC (μm)); 0.4 µM (≈ 0.12 µg/mL) in the data set with F. tularensis LVS [4]; 3.13 µg/mL in the data set on M. tuberculosis H37Rv (setting [14]); 10.5 µM in the data set on M. tuberculosis H37Rv (H37RV, M. tuberculosis, read-out: MIC, in vitro anti-mycobacterial activity). The MIC in the data set on M. tuberculosis H37Rv (setting [10]) was determined as 10.5 µM; in the data set with P. mirabilis ATCC35659 (ATCC35659, read-out: MIC (μm)) it was 214 µM (≈ 64 µg/mL); in the data set on S. aureus RN4220 (RN4220, 4-pyridones table, read-out: Staphylococcus aureus MIC (μg/mL) RN4220), 0.24 µg/mL; in the data set with S. aureus RN4220 (setting [11]), 0.8 µM; in the data set on S. aureus RN4220 (setting [12]) it was 0.8 µM; in the data set on S. aureus RN4220 (RN4220, strain RN4220 (parent), Table 4, read-out: MIC μm) it was 0.8 µM. Moreover, the MIC was 0.24 µg/mL with S. aureus RN4220 (RN4220, text, read-out: MIC against Staphylococcus aureus strain RN4220); more than 128 µg/mL with E. coli MG1655 (MG1655, 4-pyridones table, in brackets, read-out: MIC for MG1655 with intact efflux pump); more than 425 µM in the data set with E. coli MG1655 (MG1655, Table 2 footnote e, read-out: MIC against E. coli MG1655 with the intact AcrAB efflux pump). The “lower MIC against E. coli MG1655 lacking AcrAB” value with E. coli MG1655 ΔacrAB (relative to CG400549) is listed as more than 50 fold. Further, the “decrease of bacterial burden in the infected thigh” value in the data set on MRSA strain BAA1762 is given as 2.8 log cfu/g tissue. In “in vivo”, this compound showed an AUC(0-t) of 53000 ng·h/mL. This compound came in with a maximum concentration (Cmax) in “in vivo” of 45900 ng/mL. Further, the Tmax in “in vivo” stood at 15 min. Moreover, the half-life in the data set “in vivo” was 162 min.
